Laboratory results: patent US20220267352A1, “RAPAMYCIN ANALOGS AND USES THEREOF” (Anakuria Therapeutics, Inc., priority 2021, published 2022)

Assays:
[1] = system: pS6K1 T389 and pAkt S473 in PC3 cells; test: Western blot based pS6K1 and pAKT assay at 24 and 48 hour timepoints; assay type: cell-based
Protocol: Example 57: Western Blot Based pS6K1 and pAKT Assay at 24 and 48 Hour Timepoints
Assay Protocol: • 1. Seed six well plate with 500,000 PC3 cells per well and incubate for 20˜24 hour. • 2. Add compounds into the cell plate. Incubate for 24 to 48 hours. • 4. Plate is placed on ice and the media is removed via aspiration. The wells are washed with 1 mL of 1x PBS and then fully aspirated. • 5. 110 μL of 1% Triton Lysis Buffer is added and each well is scraped vigorously. • 6. Cell homogenates are transferred to 1.5 mL eppendorf tubes on ice and spun down at 4° C. for 10 minutes at 10,000 rpm. • 7. Protein concentration of resulting cell lysates were quantified utilizing a Bradford assay and the samples run analyzed via Western blot on 4-12% Bis/Tris gels with 1×MES buffer. • 8. The gels were transferred onto membranes at 50V for 100 minutes, blocked with Odyssey Blocking buffer for 30 minutes then incubated overnight with primary antibody (pS6K1 T389 Rabbit or pAkt S473 Rabbit) overnight at 4° C. on a rotator. • 9. The membranes were washed 3× with TBS-T with a 5 minute incubation between each wash then incubated with secondary antibody (LiCor IRDye 800 Donkey Anti Rabbit) for at least 30 minutes. • 10. The membranes were washed 3× with TBS-T with a 5 minute incubation between each wash. • 11. The gels were then incubated for 5 minutes with PBS at room temperature then imaged using a Li-Cor.
Compounds that are not selective by comparing pS6K1 and pAKT IC50 by kinase assays are indicated by “NO” in the “mTORC1 selective @ 90 min” column of Table 4. […] Compounds that are not selective at the 24 hrs mark are indicated by “NO” in the “mTORC1 selective @ 24 hrs” column of Table 4. “N/A” stands for “not assayed” and “N/C” stands for “not calculated”.

[2] = system: p-p70 S6 Kinase (Thr389) in MCF-7 cells; test: AlphaLISA Ultra pS6K1 assay; assay type: cell-based; conditions: Homo sapiens, 1.5 h; MCF7 cells, 90 min
Outline: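 Phospho-S6K1 (Thr389) quantified by AlphaLISA Ultra read-out (2 h acceptor, then 2 h donor beads) in lysates of MCF-7 cells. Cells were plated 20–24 h before, refed 2 h, exposed to compounds for 90 min at 0.5% final DMSO, and lysates stored at −80 °C.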

Row | Structure (SMILES) | mTORC1 selective @ 24 hrs [1] | IC50 [2]
1 | CO[C@@H]1/C(C)=C/[C@@H](C)C(=O)C[C@@H]([C@H](C)C[C@@H]2CC[C@@H](OCCCO)[C@H](OC)C2)OC(=O)[C@@H]2CCCCN2C(=O)C(=O)[C@]2(O)O[C@@H](CC[C@H]2C)C[C@H](OCCOC2COC2)/C(C)=C/C=C/C=C/[C@@H](C)C[C@@H](C)C(=O)[C@@H]1OC [I-45, (23E,25E,27E,28E,35R,36S,37R,38R,40S,42S,44S,45S,47R,48R,57R)-47,57-dihydroxy-45-[(1R)-2-[(1S,3R,4R)-4-(3-hydroxypropoxy)-3-methoxy-cyclohexyl]-1-methyl-ethyl]-48-methoxy-35,36,37,38,49,50-hexamethyl-44-[2-(oxetan-3-yloxy)ethoxy]-68,69-dioxa-58-azatricyclohexatriaconta-23,25,27(49),28(50)-tetraene-51,52,53,54,55-pentone] | Yes | < 1 nM
2 | COCCOCCO[C@H]1C[C@@H]2CC[C@@H](C)[C@@](O)(O2)C(=O)C(=O)N2CCCC[C@H]2C(=O)O[C@H]([C@H](C)C[C@@H]2CC[C@@H](OCCOC)[C@H](OC)C2)CC(=O)[C@H](C)/C=C(\C)[C@@H](OC)[C@@H](OC)C(=O)[C@H](C)C[C@H](C)/C=C/C=C/C=C/1C [I-47, (24E,26E,28E,29E,37R,38S,39R,40R,42S,44S,46S,47S,48R,49R,58R)-58-hydroxy-48,49-dimethoxy-46-[2-(2-methoxyethoxy)ethoxy]-47-[(1R)-2-[(1S,3R,4R)-3-methoxy-4-(2-methoxyethoxy)cyclohexyl]-1-methyl-ethyl]-37,38,39,40,50,51-hexamethyl-66,67-dioxa-59-azatricyclohexatriaconta-24,26,28(50),29(51)-tetraene-52,53,54,55,56-pentone] | Yes | 1 to 10 nM
3 | COCCOCCO[C@H]1C[C@@H]2CC[C@@H](C)[C@@](O)(O2)C(=O)C(=O)N2CCCC[C@H]2C(=O)O[C@H]([C@H](C)C[C@@H]2CC[C@@H](O)[C@H](OC)C2)CC(=O)[C@H](C)/C=C(\C)[C@@H](OC)[C@@H](OC)C(=O)[C@H](C)C[C@H](C)/C=C/C=C/C=C/1C [I-49, (23E,25E,27E,28E,34R,35S,36R,37R,39S,41S,43S,44S,45R,46R,55R)-55-hydroxy-44-[(1R)-2-[(1S,3R,4R)-4-hydroxy-3-methoxy-cyclohexyl]-1-methyl-ethyl]-45,46-dimethoxy-43-[2-(2-methoxyethoxy)ethoxy]-34,35,36,37,47,48-hexamethyl-64,65-dioxa-56-azatricyclohexatriaconta-23,25,27(47),28(48)-tetraene-49,50,51,52,53-pentone] | Yes | 1 to 10 nM
4 | CO[C@@H]1/C(C)=C/[C@@H](C)C(=O)C[C@@H]([C@H](C)C[C@@H]2CC[C@@H](OCCO)[C@H](OC)C2)OC(=O)[C@@H]2CCCCN2C(=O)C(=O)[C@]2(O)O[C@@H](CC[C@H]2C)C[C@H](OCCOCCOC2COC2)/C(C)=C/C=C/C=C/[C@@H](C)C[C@@H](C)C(=O)[C@@H]1OC [I-62, (1R,9S,12S,15R,16E,18R,19R,21R,23S,24E,26E,28E,30S,32S,35R)-1-hydroxy-12-[(1R)-2-[(1S,3R,4R)-4-(2-hydroxyethoxy)-3-methoxy-cyclohexyl]-1-methyl-ethyl]-18,19-dimethoxy-15,17,21,23,29,35-hexamethyl-30-[2-[2-(oxetan-3-yloxy)ethoxy]ethoxy]-11,36-dioxa-4-azatricyclo[30.3.1.0^4,9]hexatriaconta-16,24,26,28-tetraene-2,3,10,14,20-pentone] | No | 100 to 1000 nM
